Experimental data as given in patent US20210386367A1, “DEVICES AND SYSTEMS FOR GASTROINTESTINAL MICROBIOME DETECTION AND MANIPULATION” (Progenity, Inc., priority 2018, published 2021).
Converted amounts (≈) assume the structure as drawn. “And” between values parts separate entries of the source, which are not always exact repeats. Equal values may be shown once. Read-outs that look alike come from different tables or passages of the source.

Tests used:
Type in all cases: cell-based
[1] = system: Streptococcus pyogenes; experiment: Broth microdilution MIC, 19 clinical isolates
Experimental: (§1) Minimal inhibitory concentration (MIC) values were determined by broth microdilution or agar dilution in accordance with guidelines from the Clinical and Laboratory Standards Institute (CLSI; (1) “Methods for Dilution Antimicrobial Susceptibility Tests for Bacteria That Grow Aerobically; Approved Standard; 11th ed.” CLSI standard M07-A11, 2018; (2) “Performance Standards for Antimicrobial Susceptibility Testing; Twenty-Eighth Informational Supplement,” CLSI document M100-S28, 2018; and (3) “Methods for Antimicrobial Susceptibility Testing of Anaerobic Bacteria; Approved Standard—Eighth Edition,” CLSI document M11-A8, 2012).
(§2) Tested aerobically by broth microdilution: • Escherichia coli, n=50 • Klebsiella spp., n=50 • Pseudomonas aeruginosa, n=50 • Streptococcus spp., n=50 • Staphylococcus aureus, n=50 • Enterococcus faecalis, n=50 • Enterobacter aerogenes, n=50 • Proteus mirabilis, n=50
(§3) Broth microdilution testing of aerobic bacteria was conducted in cation-adjusted Mueller Hinton broth (MHBII). For testing streptococci, lysed horse blood (LHB) was added to MHBII broth at a final concentration of 3%. Where LHB was used, it was added after filtering.
(§4) Broth microdilution susceptibility testing in 96-well microplates was conducted in accordance with CLSI methods (1) and (2). Automated liquid handlers were used to conduct serial dilutions and liquid transfers, including the Multidrop 384 (Labsystems, Helsinki, Finland), Biomek 2000, and the Biomek FX (Beckman Coulter, Fullerton, Calif.). All wells in columns 2 through 12 of a standard 96-well microdilution plate (Costar 3795) were filled with 150 μL of the appropriate diluent. Then, 300 μL of the test agents were added to the wells of column 1 of the plates at 100× the highest final concentration to be tested. Serial two-fold dilutions were made across the rows through column 11 using the Biomek 2000. The wells of column 12 contained no drug and served as the growth control wells. This plate served as the “mother plate” from which MIC assay plates or “daughter plates” were made.
(§5) The daughter plates were loaded with 190 μL per well of the appropriate medium using the Multidrop 384. The daughter plates were created using the Biomek FX which transferred 2 μL of drug solution from each well of a mother plate to each corresponding well of the daughter plate in a single step. A standardized inoculum of each test organism was prepared per CLSI methods (1) to equal a 0.5 McFarland standard, followed by a dilution of 1:20 for aerobes and 1:10 for anaerobes. The plates were then inoculated with 10 μL of the diluted inoculum using the Biomek 2000 from low to high drug concentration, resulting in a final concentration of approximately 5×10^5 CFU/mL per well. An un-inoculated plate was incubated in parallel for each medium for the purpose of assessing solubility of the drug in the test media.
(§6) Inoculated plates were stacked 3 or 4 high, covered with a sterile lid on the top plate, placed into boxes with CO2 planchets (streptococci) or plastic bags (all other isolates). Plates were incubated at 35° C. for 16-24 hr in ambient air for aerobes or for 42-48 hr in the anaerobic environment of the Bactron II anaerobe chamber (Sheldon Manufacturing Co.; Cornelius, Oreg.). Following incubation, the microplates were removed from the incubator and viewed from the bottom using a plate viewer. The MIC values were read and recorded as the lowest concentration of drug that inhibited visible growth of the organism as per CLSI methods (1) and (2).

[2] = system: Viridans group Streptococcus; experiment: Broth microdilution MIC, 15 clinical isolates; conditions: for Mode: modal MIC
Experimental: as §1, §2, §3, §4, §5, §6

[3] = system: Streptococcus spp.; experiment: Broth microdilution MIC, 54 clinical isolates; conditions: for Mode: modal MIC
Experimental: as §1, §2, §3, §4, §5, §6

[4] = system: Enterococcus faecalis; experiment: Broth microdilution MIC, 50 clinical isolates
Experimental: as §1, §2, §3, §4, §5, §6

[5] = system: Streptococcus agalactiae; experiment: Broth microdilution MIC, 20 clinical isolates; conditions: for Mode: modal MIC
Experimental: as §1, §2, §3, §4, §5, §6

[6] = system: Viridans group Streptococci clinical isolates; experiment: MIC distribution against clinical isolates; conditions: 15 Viridans group Streptococci isolates
Source text: (§7) As used herein, “minimum inhibitory concentration” or “MIC” refers to the lowest concentration of an antimicrobial agent, for example, an antimicrobial agent as described herein, required to inhibit the growth of an organism. […] “MIC90” represents the MIC value at which ≥90% of the strains within a test population are inhibited; the 90th percentile.
(§8) Many susceptibility testing methods are known in the art and can be used as described herein (see, e.g., Jorgensen and Ferraro (2009) Clinical Infectious Diseases 49:1749-1755; and Maurer et al. (2017) Infectious Disease Reports 9:6839; the entire contents of each of the foregoing are incorporated herein by reference). For example, antimicrobial susceptibility can be determined using conventional culture based methods such as the broth or agar dilution test. In these dilution tests, the bacterial isolate of interest is inoculated onto different media that include serial dilutions of an antimicrobial agent, and incubated under appropriate conditions (e.g., overnight at 37° C.) to allow for growth to occur. Following the incubation period, the media is examined to determine bacterial growth. The lowest concentration of antibiotic that prevents growth represents the minimal inhibitory concentration (MIC). Broth dilution tests can be miniaturized and mechanized allowing for reproducibility and high throughput.

[7] = system: Staphylococcus aureus; experiment: Broth microdilution MIC, 50 clinical isolates (28 MRSA)
Experimental: as §1, §2, §3, §4, §5, §6

[8] = system: Streptococcus spp. clinical isolates; experiment: MIC distribution against clinical isolates
Source text: (n=19 S. pyogenes, n=20 S. agalactiae and n=20 Viridans group Streptococcus) clinical isolates (μg/mL).
as §7, §8

[9] = 15 Viridans group Streptococci clinical isolates
[10] = 54 Streptococcus spp. clinical isolates
[11] = 20 Streptococcus agalactiae clinical isolates
[12] = MIC 0.015 μg/mL, 54 Streptococcus spp. isolates
[13] = MIC 0.03 μg/mL, 54 Streptococcus spp. isolates
[14] = MIC 0.06 μg/mL, 54 Streptococcus spp. isolates
[15] = MIC 1 μg/mL, 54 Streptococcus spp. isolates
[16] = MIC 2 μg/mL, 54 Streptococcus spp. isolates
[17] = MIC 4 μg/mL, 54 Streptococcus spp. isolates

Compound: piperacillin/tazobactam [piperacillin-tazobactam]
- MIC50 [1]: 0.06 µg/mL
- MIC90 [1]: 0.12 µg/mL
- MIC range [1]: 0.03 to 0.25 µg/mL
- Mode [1]: 0.06 µg/mL
- MIC50 [2, 9]: 0.12 µg/mL
- MIC90 [2, 9]: 4 µg/mL
- MIC range [2, 9]: 0.015 to 4 µg/mL
- Mode [2, 9]: 0.06 µg/mL
- MIC50 [3, 10]: 0.12 µg/mL
- MIC90 [3, 10]: 1 µg/mL
- MIC range [3, 10]: 0.015 to 4 µg/mL
- Mode [3, 10]: 0.25 µg/mL
- MIC50 [4]: 4 µg/mL
- MIC90 [4]: 8 µg/mL
- Mode [4]: 4 µg/mL
- MIC50 [5, 11]: 0.25 µg/mL
- MIC90 [5, 11]: 0.25 µg/mL
- MIC range [5, 11]: 0.12 to 0.25 µg/mL
- Mode [5, 11]: 0.25 µg/mL
- Cumulative percentage of isolates inhibited at MIC ([6]; MIC 0.015 μg/mL): 6.7%
- Number of test isolates at MIC ([6]; MIC 0.015 μg/mL): 1
- Cumulative percentage of isolates inhibited at MIC ([6]; MIC 0.03 μg/mL): 26.7%
- Number of test isolates at MIC ([6]; MIC 0.03 μg/mL): 3
- Cumulative percentage of isolates inhibited at MIC ([6]; MIC 0.06 μg/mL): 46.7%
- Number of test isolates at MIC ([6]; MIC 0.06 μg/mL): 3
- Cumulative percentage of isolates inhibited at MIC ([6]; MIC 1 μg/mL): 66.7%
- Number of test isolates at MIC ([6]; MIC 1 μg/mL): 1
- Cumulative percentage of isolates inhibited at MIC ([6]; MIC 2 μg/mL): 80.0%
- Number of test isolates at MIC ([6]; MIC 2 μg/mL): 2
- Cumulative percentage of isolates inhibited at MIC ([6]; MIC 4 μg/mL): 100.0%
- Number of test isolates at MIC ([6]; MIC 4 μg/mL): 3
- Number of test isolates at MIC ([6]; MIC […]): 1
- MIC50 [7]: 8 µg/mL
- MIC90 [7]: 64 µg/mL
- Mode [7]: 64 µg/mL
- % R ([7]; FDA breakpoints): 48% ^1
- % S ([7]; FDA breakpoints): 52% ^1
- Cumulative percentage of isolates inhibited at MIC [8, 12]: 1.9%
- Number of test isolates at MIC [8, 12]: 1
- Cumulative percentage of isolates inhibited at MIC [8, 13]: 14.8%
- Number of test isolates at MIC [8, 13]: 7
- Cumulative percentage of isolates inhibited at MIC [8, 14]: 44.4%
- Number of test isolates at MIC [8, 14]: 16
- Cumulative percentage of isolates inhibited at MIC [8, 15]: 90.7%
- Number of test isolates at MIC [8, 15]: 1
- Cumulative percentage of isolates inhibited at MIC [8, 16]: 94.4%
- Number of test isolates at MIC [8, 16]: 2
- Cumulative percentage of isolates inhibited at MIC [8, 17]: 100.0%
- Number of test isolates at MIC [8, 17]: 3

Compound: CN[C@H](CC(C)C)C(=O)N[C@H]1C(=O)N[C@@H](CC(N)=O)C(=O)N[C@H]2C(=O)N[C@H]3C(=O)N[C@H](C(=O)N[C@H](C(=O)O)c4cc(O)cc(O)c4-c4cc3ccc4O)[C@H](O)c3ccc(c(Cl)c3)Oc3cc2cc(c3O[C@@H]2O[C@H](CO)[C@@H](O)[C@H](O)[C@H]2O[C@H]2C[C@](C)(N)[C@H](O)[C@H](C)O2)Oc2ccc(cc2Cl)[C@H]1O [vancomycin, Vancomycin]
- % S [1]: 100%
- MIC range [1]: 0.25 to 0.5 µg/mL
- Mode [1]: 0.25 µg/mL
- MIC50 ([1]; Streptococcus pyogenes): 0.25 µg/mL (≈ 0.173 µM)
- MIC90 ([1]; Streptococcus pyogenes): 0.5 µg/mL (≈ 0.345 µM)
- MIC range [2, 9]: 0.25 to 1 µg/mL
- % S ([2]; 15 Viridans group Streptococci clinical isolates, MXF by FDA breakpoints): 100%
- MIC50 ([2]; Streptococcus): 0.5 µg/mL (≈ 0.345 µM)
- MIC90 ([2]; Streptococcus): 0.5 µg/mL (≈ 0.345 µM)
- Mode [2, 9]: 0.5 µg/mL
- MIC range [3, 10]: 0.25 to 1 µg/mL
- % S ([3]; 54 Streptococcus spp. clinical isolates, MXF by FDA breakpoints): 100%
- MIC50 ([3]; Streptococcus): 0.25 µg/mL (≈ 0.173 µM)
- MIC90 ([3]; Streptococcus): 0.5 µg/mL (≈ 0.345 µM)
- Mode [3, 10]: 0.25 µg/mL
- % R [4]: 26%
- % S [4]: 74% ^
- Mode [4]: 0.5 µg/mL
- MIC50 ([4]; Enterococcus faecalis): 1 µg/mL (≈ 0.69 µM)
- MIC90 ([4]; Enterococcus faecalis): > 32 µg/mL
- % R ([4]; listed as VAN): 26% ^
- MIC range [5, 11]: 0.25 to 1 µg/mL
- % S ([5]; 20 Streptococcus agalactiae clinical isolates, MXF by FDA breakpoints): 100%
- MIC50 ([5]; Streptococcus agalactiae): 0.5 µg/mL (≈ 0.345 µM)
- MIC90 ([5]; Streptococcus agalactiae): 0.5 µg/mL (≈ 0.345 µM)
- Mode [5, 11]: 0.5 µg/mL
- Cumulative percentage of isolates inhibited at MIC ([6]; MIC 1 μg/mL): 100.0%
- Number of test isolates at MIC ([6]; MIC 1 μg/mL): 1
- % S [7]: 100%
- MIC range [7]: 0.25 to 1 µg/mL
- Mode [7]: 0.5 µg/mL
- MIC50 ([7]; Staphylococcus aureus): 0.5 µg/mL (≈ 0.345 µM)
- MIC90 ([7]; Staphylococcus aureus): 1 µg/mL (≈ 0.69 µM)
- Cumulative percentage of isolates inhibited at MIC [8, 15]: 100.0%
- Cumulative percentage of isolates inhibited at MIC ([8]; listed as VAN): 50.0% and 96.3%
